Reference: the NIST ThermoML archive (doi:10.1021/je900916e)
Numbers after ± are expanded uncertainties.

Assay: cn = amount concentration of the nth substance listed, in mol/dm3
Conditions: 101 kPa, Liquid, Advanced Conductivity Orion 162A

CC[N+](CC)(CC)CC.O=C([O-])C(F)(F)C(F)(F)C(F)(F)C(F)(F)C(F)(F)C(F)(F)C(F)(F)F [tetraethylammonium perfluorooctanoate] + O
Conditions | electrical conductivity [S/m]
288.15 K, c1 = 0.000744 | 0.00332 ± 7e-05
288.15 K, c1 = 0.001478 | 0.00651 ± 0.00013
288.15 K, c1 = 0.0022 | 0.0094 ± 0.00019
288.15 K, c1 = 0.002913 | 0.0122 ± 0.00024
288.15 K, c1 = 0.003614 | 0.015 ± 0.0003
288.15 K, c1 = 0.004306 | 0.0176 ± 0.00035
288.15 K, c1 = 0.005101 | 0.0205 ± 0.00041
288.15 K, c1 = 0.005882 | 0.0233 ± 0.00047
288.15 K, c1 = 0.006651 | 0.0258 ± 0.00052
288.15 K, c1 = 0.007407 | 0.0275 ± 0.00055
288.15 K, c1 = 0.008152 | 0.0283 ± 0.00057
288.15 K, c1 = 0.009091 | 0.0292 ± 0.00058
288.15 K, c1 = 0.01011 | 0.0301 ± 0.0006
288.15 K, c1 = 0.01131 | 0.0311 ± 0.00062
288.15 K, c1 = 0.01266 | 0.0322 ± 0.00064
288.15 K, c1 = 0.01398 | 0.0332 ± 0.00066
288.15 K, c1 = 0.01543 | 0.0343 ± 0.00069
293.15 K, c1 = 0.000662 | 0.00339 ± 7e-05
293.15 K, c1 = 0.001316 | 0.00649 ± 0.00013
293.15 K, c1 = 0.001961 | 0.00944 ± 0.00019
293.15 K, c1 = 0.002597 | 0.0123 ± 0.00025
293.15 K, c1 = 0.003226 | 0.0149 ± 0.0003
293.15 K, c1 = 0.003846 | 0.0176 ± 0.00035
293.15 K, c1 = 0.004458 | 0.0201 ± 0.0004
293.15 K, c1 = 0.005063 | 0.0226 ± 0.00045
293.15 K, c1 = 0.00566 | 0.0249 ± 0.0005
293.15 K, c1 = 0.00625 | 0.027 ± 0.00054
293.15 K, c1 = 0.006832 | 0.029 ± 0.00058
293.15 K, c1 = 0.007407 | 0.0301 ± 0.0006
293.15 K, c1 = 0.007975 | 0.0309 ± 0.00062
293.15 K, c1 = 0.008536 | 0.0316 ± 0.00063
293.15 K, c1 = 0.00942 | 0.0325 ± 0.00065
293.15 K, c1 = 0.01029 | 0.0334 ± 0.00067
293.15 K, c1 = 0.01114 | 0.0342 ± 0.00068
293.15 K, c1 = 0.01218 | 0.0351 ± 0.0007
293.15 K, c1 = 0.01319 | 0.036 ± 0.00072
293.15 K, c1 = 0.01419 | 0.0369 ± 0.00074
293.15 K, c1 = 0.01516 | 0.0378 ± 0.00076
298.15 K, c1 = 0.000662 | 0.00389 ± 8e-05
298.15 K, c1 = 0.001316 | 0.00743 ± 0.00015
298.15 K, c1 = 0.001961 | 0.0108 ± 0.00022
298.15 K, c1 = 0.002597 | 0.0141 ± 0.00028
298.15 K, c1 = 0.003226 | 0.0172 ± 0.00034
298.15 K, c1 = 0.003846 | 0.0202 ± 0.0004
298.15 K, c1 = 0.004458 | 0.0231 ± 0.00046
298.15 K, c1 = 0.005063 | 0.0259 ± 0.00052
298.15 K, c1 = 0.00566 | 0.0286 ± 0.00057
298.15 K, c1 = 0.00625 | 0.0313 ± 0.00063
298.15 K, c1 = 0.006832 | 0.0329 ± 0.00066
298.15 K, c1 = 0.007407 | 0.0339 ± 0.00068
298.15 K, c1 = 0.007975 | 0.0348 ± 0.0007
298.15 K, c1 = 0.008536 | 0.0356 ± 0.00071
298.15 K, c1 = 0.00942 | 0.0366 ± 0.00073
298.15 K, c1 = 0.01029 | 0.0376 ± 0.00075
298.15 K, c1 = 0.01114 | 0.0386 ± 0.00077
298.15 K, c1 = 0.01218 | 0.0397 ± 0.00079
298.15 K, c1 = 0.01319 | 0.0409 ± 0.00082
298.15 K, c1 = 0.01419 | 0.042 ± 0.00084
298.15 K, c1 = 0.01516 | 0.0431 ± 0.00086
303.15 K, c1 = 0.000662 | 0.00431 ± 9e-05
303.15 K, c1 = 0.001316 | 0.00815 ± 0.00016
303.15 K, c1 = 0.001961 | 0.0119 ± 0.00024
303.15 K, c1 = 0.002597 | 0.0154 ± 0.00031
303.15 K, c1 = 0.003226 | 0.0189 ± 0.00038
303.15 K, c1 = 0.003846 | 0.0222 ± 0.00044
303.15 K, c1 = 0.004458 | 0.0254 ± 0.00051
303.15 K, c1 = 0.005063 | 0.0285 ± 0.00057
303.15 K, c1 = 0.00566 | 0.0314 ± 0.00063
303.15 K, c1 = 0.00625 | 0.0344 ± 0.00069
303.15 K, c1 = 0.006832 | 0.0365 ± 0.00073
303.15 K, c1 = 0.007407 | 0.038 ± 0.00076
303.15 K, c1 = 0.007975 | 0.0389 ± 0.00078
303.15 K, c1 = 0.008536 | 0.0398 ± 0.0008
303.15 K, c1 = 0.00942 | 0.0409 ± 0.00082
303.15 K, c1 = 0.01029 | 0.042 ± 0.00084
303.15 K, c1 = 0.01114 | 0.0431 ± 0.00086
303.15 K, c1 = 0.01218 | 0.0444 ± 0.00089
303.15 K, c1 = 0.01319 | 0.0457 ± 0.00091
303.15 K, c1 = 0.01419 | 0.047 ± 0.00094
303.15 K, c1 = 0.01516 | 0.0483 ± 0.00097
308.15 K, c1 = 0.000744 | 0.00544 ± 0.00011
308.15 K, c1 = 0.001478 | 0.0102 ± 0.0002
308.15 K, c1 = 0.0022 | 0.0148 ± 0.0003
308.15 K, c1 = 0.002913 | 0.0193 ± 0.00039
308.15 K, c1 = 0.003614 | 0.0234 ± 0.00047
308.15 K, c1 = 0.004306 | 0.0275 ± 0.00055
308.15 K, c1 = 0.004988 | 0.0316 ± 0.00063
308.15 K, c1 = 0.00566 | 0.0354 ± 0.00071
308.15 K, c1 = 0.006323 | 0.0391 ± 0.00078
308.15 K, c1 = 0.006977 | 0.0419 ± 0.00084
308.15 K, c1 = 0.007621 | 0.0433 ± 0.00087
308.15 K, c1 = 0.008467 | 0.0448 ± 0.0009
308.15 K, c1 = 0.009297 | 0.0462 ± 0.00092
308.15 K, c1 = 0.01011 | 0.0475 ± 0.00095
308.15 K, c1 = 0.01111 | 0.049 ± 0.00098
308.15 K, c1 = 0.01228 | 0.0508 ± 0.001
308.15 K, c1 = 0.01361 | 0.0527 ± 0.001
308.15 K, c1 = 0.01489 | 0.0545 ± 0.0011
308.15 K, c1 = 0.01632 | 0.0565 ± 0.0011
313.15 K, c1 = 0.000662 | 0.00523 ± 0.0001
313.15 K, c1 = 0.001316 | 0.0101 ± 0.0002
313.15 K, c1 = 0.001961 | 0.0146 ± 0.00029
313.15 K, c1 = 0.002597 | 0.0189 ± 0.00038
313.15 K, c1 = 0.003226 | 0.0231 ± 0.00046
313.15 K, c1 = 0.003846 | 0.0272 ± 0.00054
313.15 K, c1 = 0.004458 | 0.0312 ± 0.00062
313.15 K, c1 = 0.005063 | 0.0351 ± 0.0007
313.15 K, c1 = 0.00566 | 0.0388 ± 0.00078
313.15 K, c1 = 0.00625 | 0.0422 ± 0.00084
313.15 K, c1 = 0.006832 | 0.0455 ± 0.00091
313.15 K, c1 = 0.007407 | 0.047 ± 0.00094
313.15 K, c1 = 0.007975 | 0.0482 ± 0.00096
313.15 K, c1 = 0.008536 | 0.0493 ± 0.00099
313.15 K, c1 = 0.00942 | 0.0508 ± 0.001
313.15 K, c1 = 0.01029 | 0.0523 ± 0.001
313.15 K, c1 = 0.01114 | 0.0537 ± 0.0011
313.15 K, c1 = 0.01218 | 0.0554 ± 0.0011
313.15 K, c1 = 0.01319 | 0.0571 ± 0.0011
313.15 K, c1 = 0.01419 | 0.0587 ± 0.0012
313.15 K, c1 = 0.01516 | 0.0603 ± 0.0012
318.15 K, c1 = 0.000744 | 0.00628 ± 0.00013
318.15 K, c1 = 0.001478 | 0.0121 ± 0.00024
318.15 K, c1 = 0.0022 | 0.0177 ± 0.00035
318.15 K, c1 = 0.002913 | 0.023 ± 0.00046
318.15 K, c1 = 0.003614 | 0.028 ± 0.00056
318.15 K, c1 = 0.004306 | 0.033 ± 0.00066
318.15 K, c1 = 0.004988 | 0.0379 ± 0.00076
318.15 K, c1 = 0.00566 | 0.0424 ± 0.00085
318.15 K, c1 = 0.006323 | 0.0468 ± 0.00094
318.15 K, c1 = 0.006977 | 0.0504 ± 0.001
318.15 K, c1 = 0.007621 | 0.0534 ± 0.0011
318.15 K, c1 = 0.008257 | 0.0548 ± 0.0011
318.15 K, c1 = 0.009091 | 0.0566 ± 0.0011
318.15 K, c1 = 0.00991 | 0.0583 ± 0.0012
318.15 K, c1 = 0.01091 | 0.0602 ± 0.0012
318.15 K, c1 = 0.01209 | 0.0624 ± 0.0013
318.15 K, c1 = 0.01342 | 0.0646 ± 0.0013
318.15 K, c1 = 0.01471 | 0.0667 ± 0.0013
318.15 K, c1 = 0.01614 | 0.0692 ± 0.0014
